The values that follow are results of earlier work, collected in article PMC3473115 (Accounts of chemical research, 2012).

The data set deals with HIV-1 gp41. As to conditions: read-out: CCF IC50; cell-cell fusion assay.

Usually IC50 stands for the point on the concentration scale where inhibition reaches its midpoint. As for H2N-Trp-[Trp]-Leu-OH [compound 5], the IC50 is 5 µM.
